Measured values from paper PMC11345766, “Computational Design of Pore-Forming Peptides with Potent Antimicrobial and Anticancer Activities” (Journal of Medicinal Chemistry, 2024).
Ends that are not written are not given here.

Key:
[1] = test system: murine macrophages RAW 264.7; conditions: 24 h
In short: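 RAW 264.7 murine macrophages seeded at 4 × 10^4 cells/well in DMEM with 2% FBS, then exposed to peptides (2–128 μM) for 24 h at 37 °C. Viability by MTT (0.5 mg/mL, 4 h) reduction to formazan, dissolved in acidified isopropanol, read at OD570; untreated cells as negative control.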

[2] = test system: A. baumannii (NCTC 13301); experiment: Murine excisional dorsal wound infection model; format: in vivo, mouse; conditions: for Survival: day 3 postinfection
Description: To investigate wound-healing applications, two peptides (LP1 and LP18) were tested in a murine wound infection model.[57] Immunosuppressed mice were infected with 5 × 10^4 cells per mL of A. baumannii (NCTC 13301) at the excised dorsal wound. The peptides at 1000 times the MICs (∼10 mg/kg) were applied directly to the wound by puncturing the dressing with a syringe once a day for 7 days. After removal of the dressing, necrosis of the epidermal tissue at the wound edges and wound expansion were observed. These conditions were reduced in the LP1-treated group, followed by the LP18-treated, PBS-treated, and untreated groups (Figure S6a,b). Contractile wound healing appeared to be higher in the LP1-treated group compared to the other groups. After 20 days, LP1-treated wounds were either completely closed or had less than 10 mm^2 of overlying serocellular crust, whereas the other wounds had larger and more inflamed serocellular crusts.
Eight-to-ten-week-old female Balb/c mice (obtained from Envigo, Netherlands) were subjected to immunosuppression induction by two intraperitoneal doses of 150 and 100 mg/kg cyclophosphamide on days −4 and −1, respectively, before wounding. On day 0 of wounding, mice were anesthetized with isoflurane and the dorsal region was shaved and scrubbed with iodine solution. A full-thickness skin defect was created over the thoracic spine using a 6 mm disposable skin biopsy punch (KAI Industries Co., Ltd., Japan). Infection was established by applying 25 μL of A. baumannii NCTC 13301 (5 × 10^4 CFU/mL) applied directly to the wound and allowed to absorb for 2 min. Wound was covered with a transparent sterile dressing (Tegaderm, Deutschland GmbH, Germany) and secured with tissue adhesive (Surgibond, SMI AG, Belgium). Afterward, mice received an intramuscular injection of buprenorphine (0.05 mg/kg). […] From 10^–3, 10^–5, and 10^–7 dilutions, 100 μL of the sample was collected three times, incubated on MacConkey agar plates (Trios, Czech Republic), and analyzed for viable cell counts. […]

[3] = single intraperitoneal dose at 10 times the MIC
Description: Neutropenic mice were infected intramuscularly (in the right thigh) with 10^6 cells per mL of Gram-negative A. baumannii (ATCC 19606).
(a) Schematic of the deep thigh infection model in which bacteria are injected intramuscularly at day 4 and peptides are administered intraperitoneally also at day 4 to assess their anti-infective activity. Mice were euthanized 4 days postinfection (day 8). Each group consisted of six mice (n = 6), and the bacterial loads used to infect the mice derived from three different inocula. […] Polymyxin B (0.006 mg/kg) and levofloxacin (0.014 mg/kg) were used as the reference antibiotics. Statistical significance was done using one-way ANOVA followed by Dunnett’s test. Violin plots represent the median, upper quartile, and lower quartile. (c) Mouse weight was monitored to exclude possible toxic effects of the peptides.
Six-week-old female CD-1 mice (obtained from Charles River; stock number 18679700-022) underwent neutropenia induction via two intraperitoneal doses of cyclophosphamide (150 mg kg^–^1) administered with a 72 h interval. One day later, the mice received an intramuscular injection containing A. baumannii ATCC 19606 (10^6 CFU mL^–1) in the right thigh. Bacteria were cultured in LB broth, washed twice with PBS (pH 7.4), and resuspended to the desired concentration. […] Polymyxin B (0.006 mg/kg) and levofloxacin (0.014 mg/kg) were used as the reference antibiotics. Prior to each injection, mice were anesthetized with isoflurane and their respiratory rate and pedal reflexes were monitored. Subsequently, we observed the infection establishment and euthanized the mice. The infected area was excised 4 days postinfection (i.e., 8 days after the beginning of the experiment), homogenized using a bead beater for 20 min (25 Hz), and 10-fold serially diluted for CFU quantification on MacConkey agar plates. Each experimental group comprised three mice. All experiments were conducted blindly, and no animals were excluded from the analysis. Statistical significance was assessed using one-way ANOVA followed by Dunnett’s test on log10-transformed data to mitigate outlier effects; p values are reported for each group, with all groups compared to the untreated control group.

[4] = test system: HCT-15; experiment: cells; format: cell-based, human; conditions: 72 h
Description: (§1) The CellTiter-Glo luminescent cell viability assay examining the impact of peptides on 22 different human cell lines was purchased from Reaction Biology Europe GmbH (Germany). Cells were cultured in different media (Table S1), seeded into a flat-bottom 96-well plate, and incubated at 37 °C. After overnight incubation, test compounds were added with 1% PBS/0.3% Tween 20 and the reference compound bortezomib was added with 0.1% DMSO. Negative controls were solvents alone, and positive control was 10 μM staurosporine. After 72 h of incubation at 37 °C, 5 or 10% CO2 (dependent on the medium), and 1 h equilibration at room temperature, well plates were treated with CellTiter-Glo reagent (Promega) for an hour and luminescence was measured using a luminometer.
(§2) Table S1. In vitro activity against 22 different human cancer cell lines.
(§3) Sr. Cancer Activity (in M)
(§4) no. Cell line type Culture medium
(§5) The effect of investigated compounds on the proliferation of 22 different human cell lines is
(§6) Twenty of these 22 cell lines represent specific cancer types and 2 were non-cancerous. Peptide
(§7) Anticancer drug bortezomib was used as the […]

[5] = test system: MDA MB 435; experiment: cells; format: cell-based, human; conditions: 72 h
Description: as §1, §2, §3, §4, §5, §6, §7

[6] = test system: RPMI 8226; experiment: cells; format: cell-based, human; conditions: 72 h
Description: as §1, §2, §3, §4, §5, §6, §7

Substance | IC50 [1] [µM] | Survival [2] [%] | Change in mouse weight [3] | Overlying serocellular crust of wound ([2]; topical, 1000 times the MIC (∼10 mg/kg) once a day for 7 days, after 20 days) | IC50 [4] [µM] | IC50 [5] [µM] | IC50 [6] [µM]
KKKKLKKILKKLFQFINQLDNQLQDIKKKK-NH2 [LP18] | 25 | 100 | no significant change in mouse weight |  |  |  | 
KKKKLKKILKKLFQFINQLDNQLQDIKQNK-NH2 [LP1] | 44 | 100 | no significant change in mouse weight | less than 10 mm^2 | 4.7 | 1.4 | 4.4
H-HHHHLKKILKKLFQFINQLDNQLQDIHHHH-OH [LP40] |  |  |  |  | 7.1 | 190 | 5.6
